Measured values taken from PMC7196072, “Cryo-EM structures of PAC1 receptor reveal ligand binding mechanism” (Cell Research, 2020).
Like-named read-outs stand apart in the source and are kept apart here.

Legend:
[1] = cited from earlier work
Description: As the major sensory and vasodilator neuropeptides, PACAP38 and VIP are involved in parasympathetic communication with the cranial vasculature. Abnormal activation and sensitization of the central trigeminovascular pain pathway mediate migraine and the release of these peptides.[5]

[2] = tested on: PAC1R construct used in the cryo-EM studies; format: cell-based, human; settings: cAMP, BacMam CHO-K1, pH 7.4, 30 min 37 °C, average ± SD, N=3
Description: WT PAC1R and mutations used in the functional assay were cloned into pJIF1.1 for BacMam virus generation.
CHO-K1 cells were cultured in DMEM supplemented with 10% FBS and infected with BacMam viruses with a MOI of 100. 24 h after infection, cells were collected for membrane preparation or functional assay.
Activation of WT PAC1R and mutants was measured based on intracellular cAMP levels using Lance Ultra cAMP kit (PerkinElmer) according to the manufacturer’s protocol. […] Then 5 µL of 4× Eu-cAMP and 5 µL of 4× Ulight-Anti-cAMP working solutions were added to each well and incubated at room temperature for 60 min before reading with Envision (PerkinElmer). All signals (ratio of 665 nm/615 nm) were fit with a sigmoidal dose-response model using GraphPad Prism 7.
Both the average and S.D.
are calculated based 3 rounds of independent assays in 3 different days (N=3), and on each
day, duplicates were run for each dose on dose response curves.
# Ratio to WT is calculated as EC50 of mutation to EC50 of WT.
† The best-fit value of pEC50 from 3 different assays was used to calculate p value in T-test,
between WT and each mutation, with 2-tailed and equal variance (homoscedastic).

Row | Compound | induction of delayed migraine-like headaches ([1]; in vivo, iv) | pEC50 [2] | induction of delayed migraine-like headaches ([1]; intravenous infusion)
1 | CC[C@H](C)[C@H](NC(=O)CNC(=O)[C@H](CC(=O)O)NC(=O)[C@H](CO)NC(=O)[C@@H](N)Cc1cnc[nH]1)C(=O)N[C@@H](Cc1ccccc1)C(=O)N[C@H](C(=O)N[C@@H](CC(=O)O)C(=O)N[C@@H](CO)C(=O)N[C@@H](Cc1ccc(O)cc1)C(=O)N[C@@H](CO)C(=O)N[C@@H](CCCNC(=N)N)C(=O)N[C@@H](Cc1ccc(O)cc1)C(=O)N[C@@H](CCCNC(=N)N)C(=O)N[C@@H](CCCCN)C(=O)N[C@@H](CCC(N)=O)C(=O)N[C@@H](CCSC)C(=O)N[C@@H](C)C(=O)N[C@H](C(=O)N[C@@H](CCCCN)C(=O)N[C@@H](CCCCN)C(=O)N[C@@H](Cc1ccc(O)cc1)C(=O)N[C@@H](CC(C)C)C(=O)N[C@@H](C)C(=O)N[C@@H](C)C(=O)N[C@H](C(=O)N[C@@H](CC(C)C)C(=O)NCC(=O)N[C@@H](CCCCN)C(=O)N[C@@H](CCCNC(=N)N)C(=O)N[C@@H](Cc1ccc(O)cc1)C(=O)N[C@@H](CCCCN)C(=O)N[C@@H](CCC(N)=O)C(=O)N[C@@H](CCCNC(=N)N)C(=O)N[C@H](C(=O)N[C@@H](CCCCN)C(=O)N[C@@H](CC(N)=O)C(=O)N[C@@H](CCCCN)C(N)=O)C(C)C)C(C)C)C(C)C)[C@@H](C)O [PACAP38, pituitary adenylate cyclase-activating polypeptide] | induces delayed migraine-like headaches | 9.71 ± 0.21 | –
2 | vasoactive intestinal polypeptide [VIP] | – | – | but not VIP induces delayed migraine-like headaches
